Values quoted from earlier work, collected in US20200155524A1, “METHOD FOR REDUCING SIDE EFFECTS FROM ADMINISTRATION OF PHOSPHODIESTERASE-4 INHIBITORS” (ARCUTIS, INC., priority 2018, published 2020).
Where two headings read alike, the source gives them in different places.

Assays:
[1] = system: psoriasis; details: after 4 weeks of dosing
[2] = system: PDE-4 isoforms and subtypes; details: different PDE-4 isoforms and subtypes
[3] = initial oral administration

Compound | PASI 75 response rate [1] [%] | half maximal inhibitory concentration (IC50) [2] | Tmax (time after administration to reach Cmax) ([3]; 250 mcg tablet) [h] | Tmax (time after administration to reach Cmax) ([3]; 500 mcg tablet) [h]
CCC(=O)OCC(=O)[C@@]1(OC(=O)CC)[C@@H](C)C[C@H]2[C@@H]3CCC4=CC(=O)C=C[C@]4(C)[C@@]3(F)[C@@H](O)C[C@@]21C [betamethasone dipropionate 0.064%, betamethasone dipropionate] | 32.7 | – | – | –
O=C(Nc1c(Cl)c[n+]([O-])cc1Cl)c1ccc(OC(F)F)c(OCC2CC2)c1 [roflumilast N-oxide, 3-cyclopropylmethoxy-4-difluoromethoxy-N-(3,5-dichloropyrid-4-yl 1-oxide)benzamide] | – | subnanomolar | – | –
O=C(Nc1c(Cl)cncc1Cl)c1ccc(OC(F)F)c(OCC2CC2)c1 [roflumilast, N-(3,5-dichloropyrid-4-yl)-3-cyclopropylmethoxy-4-difluoromethoxybenzamid-e] | – | subnanomolar | 1 | 1
